Assay results taken from BindingDB's records for doi:10.1021/jm960541s (Upjohn, 1996).

Legend:
[1] = molecular target: T1, Dimer of Gag-Pol polyprotein [489-587] (Human immunodeficiency virus 1, UniProt P12497); test: Protease Inhibition Assay; conditions: pH 5; 22 °C
T1 construct: 489-587
Source text: (§1) HIV-1 protease was purified and refolded from E. coli inclusion bodies. The substrate used spans the p17-p24 processing site (R-V-S-Q-N-Y-P-I-V-Q-N-K) and was derivatized with biotin and fluorescein isothiocyanate (FITC) at the amino and carboxy termini. In the presence of HIV-l protease, the substrate is rapidly cleaved into two parts. The biotinylated amino terminal fragment binds to the avidin beads while the FITC-containing carboxy1 terminal fragment is removed through the membrane. […] The bound fluorescence is obtained by processing on an IDEXX Screen Machine. Determination of Ki values with this assay requires analysis under conditions in which substrate concentration resides substantially below Km and the inhibitor concentrations greatly exceeds the Ki value and the enzyme concentration.

[2] = molecular target: T2, Dimer of Gag-Pol polyprotein [489-587] (Human immunodeficiency virus 1, UniProt P04585); test: Protease Inhibition Assay; conditions: pH 5; 22 °C
T2 construct: 489-587
Source text: as §1

Row | SMILES | Ki [1] [nM] | Ki [2] [nM]
1 | CCCC1(CCc2ccccc2)CC(=O)C(C(CC)c2cccc(NS(=O)(=O)c3ccc(C#N)cc3)c2)C(=O)O1 (configuration not stated) [4-cyano-N-(3-{1-[4-hydroxy-2-oxo-6-(2-phenylethyl)-6-propyl-5,6-dihydro-2H-pyran-3-yl]propyl}phenyl)benzene-1-sulfonamide] | 8 | –
2 | CCCC1(CCc2ccccc2)CC(=O)C(C(CC)c2cccc(NS(=O)(=O)c3ccc(F)cc3)c2)C(=O)O1 (configuration not stated) [4-fluoro-N-(3-{1-[4-hydroxy-2-oxo-6-(2-phenylethyl)-6-propyl-5,6-dihydro-2H-pyran-3-yl]propyl}phenyl)benzene-1-sulfonamide] | 6 | –
3 | CCC[C@@]1(CCc2ccccc2)CC(=O)C([C@H](CC)c2cccc(NS(=O)(=O)c3ccc(C#N)cn3)c2)C(=O)O1 (stereo partly drawn) [5-cyano-N-{3-[(1R)-1-[(6R)-4-hydroxy-2-oxo-6-(2-phenylethyl)-6-propyl-5,6-dihydro-2H-pyran-3-yl]propyl]phenyl}pyridine-2-sulfonamide] | – | 0.007
4 | CCC[C@]1(CCc2ccccc2)CC(=O)C([C@H](CC)c2cccc(NS(=O)(=O)c3ccc(C#N)cn3)c2)C(=O)O1 (stereo partly drawn) [5-cyano-N-{3-[(1R)-1-[(6S)-4-hydroxy-2-oxo-6-(2-phenylethyl)-6-propyl-5,6-dihydro-2H-pyran-3-yl]propyl]phenyl}pyridine-2-sulfonamide] | – | 0.04
5 | CCC[C@@]1(CCc2ccccc2)CC(=O)C([C@@H](CC)c2cccc(NS(=O)(=O)c3ccc(C#N)cn3)c2)C(=O)O1 (stereo partly drawn) [5-cyano-N-{3-[(1S)-1-[(6R)-4-hydroxy-2-oxo-6-(2-phenylethyl)-6-propyl-5,6-dihydro-2H-pyran-3-yl]propyl]phenyl}pyridine-2-sulfonamide] | – | 0.1
6 | CCC[C@]1(CCc2ccccc2)CC(=O)C([C@@H](CC)c2cccc(NS(=O)(=O)c3ccc(C#N)cn3)c2)C(=O)O1 (stereo partly drawn) [5-cyano-N-{3-[(1S)-1-[(6S)-4-hydroxy-2-oxo-6-(2-phenylethyl)-6-propyl-5,6-dihydro-2H-pyran-3-yl]propyl]phenyl}pyridine-2-sulfonamide] | – | 0.12
7 | CCCC1(CCc2ccccc2)CC(=O)C(C(CC)c2cccc(NS(=O)(=O)c3cn(C)cn3)c2)C(=O)O1 (configuration not stated) [N-(3-{1-[4-hydroxy-2-oxo-6-(2-phenylethyl)-6-propyl-5,6-dihydro-2H-pyran-3-yl]propyl}phenyl)-1-methyl-1H-imidazole-4-sulfonamide] | 1 | –
8 | CCCC1(CCc2ccccc2)CC(=O)C(C(CC)c2cccc(NS(=O)(=O)c3ccccc3)c2)C(=O)O1 (configuration not stated) [N-(3-{1-[4-hydroxy-2-oxo-6-(2-phenylethyl)-6-propyl-5,6-dihydro-2H-pyran-3-yl]propyl}phenyl)benzenesulfonamide] | 17 | –
9 | CCCC1(CCc2ccccc2)CC(=O)C(C(CC)c2cccc(NS(=O)(=O)c3cccc4cccnc34)c2)C(=O)O1 (configuration not stated) [N-(3-{1-[4-hydroxy-2-oxo-6-(2-phenylethyl)-6-propyl-5,6-dihydro-2H-pyran-3-yl]propyl}phenyl)quinoline-8-sulfonamide] | 3 | –
10 | CCC[C@@]1(CCc2ccccc2)CC(=O)C([C@H](CC)c2cccc(NS(=O)(=O)c3cn(C)cn3)c2)C(=O)O1 (stereo partly drawn) [N-{3-[(1R)-1-[(6R)-4-hydroxy-2-oxo-6-(2-phenylethyl)-6-propyl-5,6-dihydro-2H-pyran-3-yl]propyl]phenyl}-1-methyl-1H-imidazole-4-sulfonamide] | – | 0.06
11 | CCC[C@@]1(CCc2ccccc2)CC(=O)C([C@H](CC)c2cccc(NS(=O)(=O)c3ccc(C(F)(F)F)cn3)c2)C(=O)O1 (stereo partly drawn) [N-{3-[(1R)-1-[(6R)-4-hydroxy-2-oxo-6-(2-phenylethyl)-6-propyl-5,6-dihydro-2H-pyran-3-yl]propyl]phenyl}-5-(trifluoromethyl)pyridine-2-sulfonamide] | – | 0.008
12 | CCC[C@]1(CCc2ccccc2)CC(=O)C([C@H](CC)c2cccc(NS(=O)(=O)c3cn(C)cn3)c2)C(=O)O1 (stereo partly drawn) [N-{3-[(1R)-1-[(6S)-4-hydroxy-2-oxo-6-(2-phenylethyl)-6-propyl-5,6-dihydro-2H-pyran-3-yl]propyl]phenyl}-1-methyl-1H-imidazole-4-sulfonamide] | – | 0.12
13 | CCC[C@]1(CCc2ccccc2)CC(=O)C([C@H](CC)c2cccc(NS(=O)(=O)c3ccc(C(F)(F)F)cn3)c2)C(=O)O1 (stereo partly drawn) [N-{3-[(1R)-1-[(6S)-4-hydroxy-2-oxo-6-(2-phenylethyl)-6-propyl-5,6-dihydro-2H-pyran-3-yl]propyl]phenyl}-5-(trifluoromethyl)pyridine-2-sulfonamide] | – | 0.018
14 | CCC[C@@]1(CCc2ccccc2)CC(=O)C([C@@H](CC)c2cccc(NS(=O)(=O)c3cn(C)cn3)c2)C(=O)O1 (stereo partly drawn) [N-{3-[(1S)-1-[(6R)-4-hydroxy-2-oxo-6-(2-phenylethyl)-6-propyl-5,6-dihydro-2H-pyran-3-yl]propyl]phenyl}-1-methyl-1H-imidazole-4-sulfonamide] | – | 0.3
15 | CCC[C@@]1(CCc2ccccc2)CC(=O)C([C@@H](CC)c2cccc(NS(=O)(=O)c3ccc(C(F)(F)F)cn3)c2)C(=O)O1 (stereo partly drawn) [N-{3-[(1S)-1-[(6R)-4-hydroxy-2-oxo-6-(2-phenylethyl)-6-propyl-5,6-dihydro-2H-pyran-3-yl]propyl]phenyl}-5-(trifluoromethyl)pyridine-2-sulfonamide] | – | 0.032
16 | CCC[C@]1(CCc2ccccc2)CC(=O)C([C@@H](CC)c2cccc(NS(=O)(=O)c3cn(C)cn3)c2)C(=O)O1 (stereo partly drawn) [N-{3-[(1S)-1-[(6S)-4-hydroxy-2-oxo-6-(2-phenylethyl)-6-propyl-5,6-dihydro-2H-pyran-3-yl]propyl]phenyl}-1-methyl-1H-imidazole-4-sulfonamide] | – | 1
17 | CCC[C@]1(CCc2ccccc2)CC(=O)C([C@@H](CC)c2cccc(NS(=O)(=O)c3ccc(C(F)(F)F)cn3)c2)C(=O)O1 (stereo partly drawn) [N-{3-[(1S)-1-[(6S)-4-hydroxy-2-oxo-6-(2-phenylethyl)-6-propyl-5,6-dihydro-2H-pyran-3-yl]propyl]phenyl}-5-(trifluoromethyl)pyridine-2-sulfonamide] | – | 0.22
